# From ChEMBL document CHEMBL4665851, “Design, synthesis, antimycobacterial activity and molecular docking studies of novel 3- (N-substituted glycinamido) benzoic acid analogues as anti tubercular agents” (Bioorg Med Chem Lett, 2020)
# Legend:
# Settings in all cases: time 5.0 day
# [1] = tested on: Mycobacterium tuberculosis H37Rv; assay: Inhibition of MmA1 in Mycobacterium tuberculosis H37Rv assessed as reduction in bacterial growth incubated for 5 days by MABA assay
# [2] = tested on: Mycobacterium tuberculosis H37Rv; assay: Potency index, ratio of pyrazinamide MIC to test compound MIC for Inhibition of MmA1-mediated antitubercular activity against Mycobacterium tuberculosis H37Rv incubated for 5 days by MABA assay
# [3] = tested on: Mycobacterium tuberculosis H37Rv; assay: Potency index, ratio of ciprofloxacin MIC to test compound MIC for Inhibition of MmA1-mediated antitubercular activity against Mycobacterium tuberculosis H37Rv incubated for 5 days by MABA assay
# [4] = tested on: Mycobacterium tuberculosis H37Rv; assay: Potency index, ratio of streptomycin MIC to test compound MIC for Inhibition of MmA1-mediated antitubercular activity against Mycobacterium tuberculosis H37Rv incubated for 5 days by MABA assay
Compound,MIC [1],Ratio [2],Ratio [3],Ratio [4]
CN1CCN(CC(=O)Nc2cccc(C(=O)O)c2)CC1,1.6 µg/mL,> 2,> 2,> 2
Cc1ccc(NCC(=O)Nc2cccc(C(=O)O)c2)cc1,6.25 µg/mL,–,–,–
O=C(Cn1ccnc1)Nc1cccc(C(=O)O)c1,12.5 µg/mL,–,–,–
O=C(CNc1ccccc1)Nc1cccc(C(=O)O)c1,6.25 µg/mL,–,–,–
O=C(CN1CCCCC1)Nc1cccc(C(=O)O)c1,1.6 µg/mL,> 2,> 2,> 2
O=C(CN1CCCC1)Nc1cccc(C(=O)O)c1,1.6 µg/mL,> 2,> 2,> 2
O=C(CN1CCOCC1)Nc1cccc(C(=O)Nc2ccc3[nH]cnc(=O)c3c2)c1,100 µg/mL,–,–,–
O=C(CNc1ccc(Br)cc1)Nc1cccc(C(=O)O)c1,3.12 µg/mL,–,–,–
O=C(CNc1ccccn1)Nc1cccc(C(=O)O)c1,12.5 µg/mL,–,–,–
O=C(CNc1ccc(F)cc1F)Nc1cccc(C(=O)O)c1,1.6 µg/mL,> 2,> 2,> 2
O=C(CN1CCN(c2ccccc2)CC1)Nc1cccc(C(=O)O)c1,1.6 µg/mL,> 2,> 2,> 2
O=C(CN1CCN(Cc2ccccc2)CC1)Nc1cccc(C(=O)O)c1,3.12 µg/mL,–,–,–
O=C(CNc1ccc(Cl)cc1)Nc1cccc(C(=O)O)c1,6.25 µg/mL,–,–,–
O=C(CN1CCOCC1)Nc1cccc(C(=O)O)c1,25 µg/mL,–,–,–
O=C(O)c1cn(C2CC2)c2cc(N3CCNCC3)c(F)cc2c1=O,3.12 µg/mL,–,–,–
NC(=O)c1cnccn1,3.12 µg/mL,–,–,–
CN[C@@H]1[C@H](O[C@H]2[C@H](O[C@H]3[C@H](O)[C@@H](O)[C@H](N=C(N)N)[C@@H](O)[C@@H]3N=C(N)N)O[C@@H](C)[C@]2(O)C=O)O[C@@H](CO)[C@H](O)[C@H]1O,6.25 µg/mL,–,–,–
CCN(CC)CC(=O)Nc1cccc(C(=O)O)c1,3.12 µg/mL,–,–,–
